Experiments:
Assay type in all cases: cell-based, Listeria monocytogenes
L. monocytogenes [1] = assay: BHI-agar deep-well model of nisin depletion (21 days, 4° C.) with bioassay, PG derivatives
Protocol: Nisin activity, either for those freshly prepared or stored in BHI agar deep-well, was determined as described by Pongtharangkul and Demirci (2004) with modifications. Agar diffusion bioassay was used to determine the nisin activity against L. monocytogenes. BHI (3.7%) solution containing 0.75% agar and 1.0% Tween 20 was prepared and autoclaved. After cooling to approximately 40° C., the solution was inoculated by a 1.0% volume of BHI broth containing L. monocytogenes V7 (ca. 108 colony-forming units/mL). To each square Petri-dish plate (10×10 cm), a 32 mL inoculated BHI agar solution was added and allowed to solidify. Thereafter, holes with 7.0 mm diameter were made using a cork borer, and 100 μL of each nisin preparation was added to each agar well. The Petri-dish plates were then incubated for 24 h at room temperature, and the size of inhibitory ring was measured to indicate the activity against L. monocytogenes.
In this study, a BHI-agar deep-well model was established to mimic the depletion of nisin at nutrient-containing surfaces, such as a food surface (FIG. 1). BHI is a nutritious culture medium that supplies protein and other nutrients necessary to support the growth of fastidious and nonfastidious microorganisms. It contains infusions from calf brains and beef hearts, proteose and peptone, dextrose, sodium chloride, and disodium phosphate. […] Therefore, BHI is an ideal nutrient model for studying nisin depletion and retention. Our experiments have consistently shown that BHI-containing broths and gels lead to rapid depletion of peptide activity. In a deep well filled with a liquid peptide preparation, peptide molecules diffuse from the solution into the gel (causing diffusion-based depletion), and BHI components diffuse from the agar gel into the solution (causing irreversible peptide adsorption or degradation).
For continuous sampling at various stages of storage, nisin preparations were added to the deep wells of the BHI-agar gel. For the deep-well storage, the inner surface of a well was used to mimic the outer surface of solid food. […]

L. monocytogenes V7 = assay: BHI-agar deep-well model of nisin depletion (50 days, 4° C.) with bioassay, emulsions
Protocol: To prepare emulsions, PG-OS and WCS-OS were each dissolved in sodium acetate buffer (50 mM, pH 5.5, 22° C.) to form a solution of 10 mg/mL. As a reference, 1.0 mg/mL of Tween 20 solution was also prepared using the sodium acetate buffer. Vegetable oil was added to each emulsifier solution, at twice (for PG-OS and WCS-OS) or 20 times (Tween 20) the weight of the emulsifier. […] Each mixture was further diluted with the same volume of sodium acetate buffer. […] These emulsions were sterilized using a boiling-water bath for 3 min before further tests. Nisin activity, either for those freshly prepared or stored in BHI agar deep-well, was determined as described by Pongtharangkul and […] (2004) with modifications. Agar diffusion bioassay was used to determine the nisin activity against L. monocytogenes. […] After cooling to approximately 40° C., the solution was inoculated by a 1.0% volume of BHI broth containing L. monocytogenes V7 (ca. 108 colony-forming units/mL). To each square Petri-dish plate (10×10 cm), a 32 mL inoculated BHI agar solution was added and allowed to solidify. […] The Petri-dish plates were then incubated for 24 h at room temperature, and the size of inhibitory ring was measured to indicate the activity against L. monocytogenes. […] The hot solution (225 mL) was poured into a 600-mL beaker to a height of 40 mm. After gel solidification, four wells (from gel surface to bottom) were made in each beaker using a 7.0-mm borer.

L. monocytogenes [2] = assay: Control storage of emulsions in regular test tubes at 4° C. with bioassay; conditions: 150 μg/mL nisin
Protocol: The label “free nisin” denotes the preparation containing nisin only in buffer. The total initial concentration of nisin was 150 μg/mL for each preparation. One portion of each preparation was applied to the model system (labeled “Model”), and another portion was stored in a regular test tube as the control (labeled “Control”). Both model and control groups were aliquoted after various storage periods for the activity tests.
Nisin activity, either for those freshly prepared or stored in BHI agar deep-well, was determined as described by Pongtharangkul and Demirci (2004) with modifications. Agar diffusion bioassay was used to determine the nisin activity against L. monocytogenes. BHI (3.7%) solution containing 0.75% agar and 1.0% Tween 20 was prepared and autoclaved. After cooling to approximately 40° C., the solution was inoculated by a 1.0% volume of BHI broth containing L. monocytogenes V7 (ca. 108 colony-forming units/mL). To each square Petri-dish plate (10×10 cm), a 32 mL inoculated BHI agar solution was added and allowed to solidify. Thereafter, holes with 7.0 mm diameter were made using a cork borer, and 100 μL of each nisin preparation was added to each agar well. The Petri-dish plates were then incubated for 24 h at room temperature, and the size of inhibitory ring was measured to indicate the activity against L. monocytogenes. […]

[3] = initial nisin 150 μg/mL, calculated from ring size by standard curve

For nisin [free nisin], the “retained activity at day 5” value (L. monocytogenes [1]; deep wells in BHI-agar gel, summary) was “negligible”, the “residual nisin activity after 7 days” value (L. monocytogenes [1]; deep-well model, 4° C., 100 μg/mL nisin) was “negligible” and the “nisin activity at 0 day” value (L. monocytogenes [1]; deep-well model, initial test, 100 μg/mL nisin) was “highest nisin activity”. For the same substance, the “size of inhibitory ring after 40 days, model groups” value (L. monocytogenes V7; deep-well model, 4° C., 150 μg/mL nisin) was “undetectable”, the “available nisin after 5 days” value (L. monocytogenes V7; [3]) was 10.2 µg/mL and the “available nisin after 20 days” value (L. monocytogenes V7; [3]) was < 1 µg/mL. For the same substance, the “available nisin after 40 days” value (L. monocytogenes V7; [3]) was “negligible” and the “change of inhibitory ring size during storage, control groups” value (L. monocytogenes [2]) was “did not show an appreciable change”.

Source: patent publication US20140066363A1, “CARBOHYDRATE NANOPARTICLES FOR PROLONGED EFFICACY OF ANTIMICROBIAL PEPTIDE” (priority 2011, published 2014)
